Article PMC12489660, “Multitargeted Caffeic Acid Derivatives Inhibit Cardiac RyR2- and NaV1.5- Channels but Stimulate SERCA2a Pump Activity” (ACS Omega, 2025)
Several values for one entry are separate records, joined by “and”; a condition that tells them apart may be missing. Equal entries are not always repeated.

How the values were obtained:
[1] = biological target: T1, wild type mouse RyR2 (Mus musculus, UniProt E9Q401); assay: Time-lapse [Ca2+]ER assay in HEK-293 RyR2 R-CEPIA1er cells (RyR2 activity assay); type: cell-based; details: 25 μM; for effect on RyR2 activity / [Ca2+]ER (in words): vs control 0.1 v/v% DMSO; for RyR2 activity: percentage from the control sample (100%), mean ± SEM;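 as to all read-outs here: ER Ca2+ read as R-CEPIA1er fluorescence ratio F/F0 (F0 mean of initial 90 s, F mean of final 100 s), compared with vehicle-treated control wells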
T1 construct: expressed in transfected cells; host or cells: HEK-293 cells stably expressing WT RyR2 and R-CEPIA1er (gift of Dr. Takashi Murayama), induced with doxycycline

[2] = biological target: T2, SERCA2a (Mus musculus, UniProt O55143); assay: NADH-coupled ATPase assay on microsomal membrane vesicles from mouse heart ventricles (mouse SER); type: biochemical; details: for effect on SERCA2a ATPase activity (in words) / ATPase activity of SERCA2a in mouse SER: 10 μM; for effect on SERCA2a ATPase activity (in words): mouse SER; for ATPase activity of SERCA2a in mouse SER: percentage from the control sample (100%), mean ± SEM; for EC50: kinetic rate of NADH–NAD+ conversion, Figure S10: 200 µM free Ca2+
T2 construct: from tissue; host or cells: adult mouse heart ventricles, microsomal membrane vesicles
T2 sequence (O55143 1-998 isoform O55143-2): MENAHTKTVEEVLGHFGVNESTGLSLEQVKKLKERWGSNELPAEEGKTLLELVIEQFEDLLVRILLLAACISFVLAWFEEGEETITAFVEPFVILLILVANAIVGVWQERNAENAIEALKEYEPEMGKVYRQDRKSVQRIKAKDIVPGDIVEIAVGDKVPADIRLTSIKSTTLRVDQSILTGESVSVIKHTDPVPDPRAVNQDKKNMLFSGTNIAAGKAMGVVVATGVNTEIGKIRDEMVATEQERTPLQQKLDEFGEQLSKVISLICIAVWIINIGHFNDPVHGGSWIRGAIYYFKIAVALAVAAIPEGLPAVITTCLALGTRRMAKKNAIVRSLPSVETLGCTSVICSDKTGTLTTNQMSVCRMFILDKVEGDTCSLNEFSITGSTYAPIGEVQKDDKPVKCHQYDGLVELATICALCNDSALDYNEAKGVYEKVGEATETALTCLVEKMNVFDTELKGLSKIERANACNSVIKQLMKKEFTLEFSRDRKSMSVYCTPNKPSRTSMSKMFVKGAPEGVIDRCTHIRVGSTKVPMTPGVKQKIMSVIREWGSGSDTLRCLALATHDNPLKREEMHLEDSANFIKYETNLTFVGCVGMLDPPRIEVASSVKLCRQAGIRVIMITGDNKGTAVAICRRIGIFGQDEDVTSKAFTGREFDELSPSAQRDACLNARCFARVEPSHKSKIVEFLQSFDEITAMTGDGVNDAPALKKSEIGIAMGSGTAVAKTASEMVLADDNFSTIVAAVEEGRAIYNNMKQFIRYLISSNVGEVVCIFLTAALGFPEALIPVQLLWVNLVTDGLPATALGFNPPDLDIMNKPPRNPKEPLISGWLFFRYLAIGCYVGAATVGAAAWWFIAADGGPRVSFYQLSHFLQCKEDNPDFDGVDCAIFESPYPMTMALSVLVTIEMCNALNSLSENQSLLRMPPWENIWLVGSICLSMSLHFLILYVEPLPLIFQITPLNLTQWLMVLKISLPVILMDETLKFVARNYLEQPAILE
Description: To this end, we tracked the rate of nicotinamide adenine dinucleotide (NADH) oxidation linked to ATP hydrolysis by observing changes in NADH fluorescence over time. This was done after addition of ATP to solutions containing microsomal membranes enriched with SER vesicles isolated from adult mouse heart ventricles (mouse SER). The NADH fluorescence decrease was recorded on a FlexStation 3 Multimode Microplate Reader. […] We detected the highest increase in ATPase activity (up to 118%), when the vesicles were treated with borate complex 11–13 (Table ). We tested compounds 11–13 in the NADH assay buffer to see whether these compounds could contribute to the rate of NADH fluorescence reduction (Figures S7–S9). No significant deviations were found in the rate of NADH consumption compared to the control sample (0.1 v/v% DMSO).
Isolation of Microsomal Membrane Vesicles from mouse hearts was done according to procedure described earlier. All animal procedures were performed in accordance with national and institutional regulations.
Mouse ventricular microsomes (4–5 μg of total protein) were diluted in 100 μL of the assay buffer used for measurement of SERCA activity (described below) and incubated at room temperature for 10 min prior to the experiments. The measurements of SERCA2 activity were made at 25 °C by using a NADH -coupled ATPase assay as described in Radnai et al. with slight modifications. Briefly, the assay buffer contained 60 mM MOPS, 120 mM KCl, 6 mM MgCl2, 1 mM EGTA, 5 mM NaN3, 0.5 mM phosphoenolpyruvate and 0.67 mM CaCl2, pH 7.0. Before the reaction was started by the injection of 10 μL ATP (resulting in 2 mM final concentration in the well), 5 units/mL of both lactate dehydrogenase and pyruvate kinase, 0.5 mM NADH, and 1 μM Ca^2+ ionophore A-23187 (Sigma, C-7522) were added to the diluted sample with or without the tested compound (volume −150 μL). […] The NADH fluorescence decrease was recorded each 2 s for 5 min course on a FlexStation 3 Multi-Mode Microplate Reader in 96-well glass bottom plates (MatTek Corporation; Cat. No. PBK96G-1.5-5-F). Fluorescence was evoked by 380 nm excitation wavelength and collected in a bottom-read mode at 425 nm, cutoff–470 nm, 4 flashes per read. ATP was injected at 60 s, speed–125 μL/s, pipet height–140 μL. The data were analyzed with computer software GraphPad Prism version 8.3.1 (GraphPad Software, Inc.). The difference in signal decrease with and without microsomes was taken as an indicator for the additional ATPase activity performed by SERCA2. The obtained values for maximal SERCA2 activity were normalized for total protein concentration. Maximal SERCA2 activity values are reported as percentages of control (0.1% DMSO) values. Microsomal samples that were kept on ice until usage and set to 100%.

[3] = biological target: human NaV1.5 (Homo sapiens, UniProt Q14524); assay: FLIPR membrane potential assay on CHO NaV1.5 Duo cells (veratridine-induced); type: cell-based; details: for NaV1.5 activity in CHO cells: 10 μM, percentage from the control sample (100%), mean ± SEM; for effect on NaV1.5 activity (in words): concentration range 0.1 to 100 μM
Sequence of human NaV1.5 (Q14524 1-460 limits assumed): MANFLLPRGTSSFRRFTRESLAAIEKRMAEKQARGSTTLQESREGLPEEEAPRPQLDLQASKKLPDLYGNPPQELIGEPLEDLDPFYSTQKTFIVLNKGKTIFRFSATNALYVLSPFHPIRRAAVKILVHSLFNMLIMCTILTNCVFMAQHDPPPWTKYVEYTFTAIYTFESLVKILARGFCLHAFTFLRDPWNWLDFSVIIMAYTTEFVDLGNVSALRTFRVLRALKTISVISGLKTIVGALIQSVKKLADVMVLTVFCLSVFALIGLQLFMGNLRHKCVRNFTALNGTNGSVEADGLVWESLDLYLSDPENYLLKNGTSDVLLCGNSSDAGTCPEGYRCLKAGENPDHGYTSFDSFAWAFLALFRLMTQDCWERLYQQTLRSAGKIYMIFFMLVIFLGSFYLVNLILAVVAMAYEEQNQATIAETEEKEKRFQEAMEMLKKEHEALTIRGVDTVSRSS
Sequence of human NaV1.5 (Q14524 661-1004 limits assumed): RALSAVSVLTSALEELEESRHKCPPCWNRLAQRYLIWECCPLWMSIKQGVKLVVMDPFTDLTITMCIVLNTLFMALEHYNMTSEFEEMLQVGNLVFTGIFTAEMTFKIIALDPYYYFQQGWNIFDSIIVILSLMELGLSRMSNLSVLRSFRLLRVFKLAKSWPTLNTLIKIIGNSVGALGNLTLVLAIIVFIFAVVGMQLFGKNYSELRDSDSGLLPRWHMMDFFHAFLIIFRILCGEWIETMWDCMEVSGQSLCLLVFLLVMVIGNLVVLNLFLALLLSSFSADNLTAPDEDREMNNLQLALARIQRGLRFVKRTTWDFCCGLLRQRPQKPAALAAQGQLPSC
Sequence of human NaV1.5 (Q14524 1142-2016 limits assumed): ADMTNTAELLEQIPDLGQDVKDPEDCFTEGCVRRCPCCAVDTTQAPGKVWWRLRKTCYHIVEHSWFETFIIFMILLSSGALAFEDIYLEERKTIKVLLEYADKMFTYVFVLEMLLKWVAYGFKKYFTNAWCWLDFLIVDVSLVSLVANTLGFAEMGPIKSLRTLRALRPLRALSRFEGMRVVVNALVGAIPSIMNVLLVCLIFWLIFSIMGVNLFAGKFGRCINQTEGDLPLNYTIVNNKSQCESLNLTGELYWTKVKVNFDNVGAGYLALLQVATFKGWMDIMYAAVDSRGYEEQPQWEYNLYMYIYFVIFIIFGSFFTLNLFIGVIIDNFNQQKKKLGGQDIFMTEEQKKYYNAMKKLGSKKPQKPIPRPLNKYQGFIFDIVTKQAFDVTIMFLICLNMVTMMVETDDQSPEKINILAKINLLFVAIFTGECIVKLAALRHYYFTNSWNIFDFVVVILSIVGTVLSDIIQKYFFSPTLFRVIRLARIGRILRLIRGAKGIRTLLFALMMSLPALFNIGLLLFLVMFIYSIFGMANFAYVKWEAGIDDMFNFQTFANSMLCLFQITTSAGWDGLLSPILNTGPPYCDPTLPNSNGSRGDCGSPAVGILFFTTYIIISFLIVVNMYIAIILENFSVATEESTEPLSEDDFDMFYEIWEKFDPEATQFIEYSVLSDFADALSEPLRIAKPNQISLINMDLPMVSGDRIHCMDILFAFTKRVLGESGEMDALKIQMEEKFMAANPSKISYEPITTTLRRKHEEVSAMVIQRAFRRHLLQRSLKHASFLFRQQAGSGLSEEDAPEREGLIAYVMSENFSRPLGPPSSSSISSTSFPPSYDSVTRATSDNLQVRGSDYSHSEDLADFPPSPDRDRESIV

[4] = biological target: SERCA2 (Mus musculus, UniProt O55143); assay: Caffeine induced calcium release assay on live HL-1 cardiomyocytes; type: cell-based; details: for EC50: 2 h preincubation, 10 mM caffeine, read-out: activation of SERCA2 in HL-1, EC50 (converted); for activation of SERCA2 in HL-1: 10 μM, percentage from the control sample (100%), mean ± SEM;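 as to all read-outs here: Read-out: caffeine-evoked peak minus basal fluorescence (ΔF Caff) of cytoplasmic FLIPR Calcium 6 dye, recorded for 1 min, compared with Tyrode's solution plus 0.1 v/v% DMSO as control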
Sequence of SERCA2 (O55143 1-994 limits assumed): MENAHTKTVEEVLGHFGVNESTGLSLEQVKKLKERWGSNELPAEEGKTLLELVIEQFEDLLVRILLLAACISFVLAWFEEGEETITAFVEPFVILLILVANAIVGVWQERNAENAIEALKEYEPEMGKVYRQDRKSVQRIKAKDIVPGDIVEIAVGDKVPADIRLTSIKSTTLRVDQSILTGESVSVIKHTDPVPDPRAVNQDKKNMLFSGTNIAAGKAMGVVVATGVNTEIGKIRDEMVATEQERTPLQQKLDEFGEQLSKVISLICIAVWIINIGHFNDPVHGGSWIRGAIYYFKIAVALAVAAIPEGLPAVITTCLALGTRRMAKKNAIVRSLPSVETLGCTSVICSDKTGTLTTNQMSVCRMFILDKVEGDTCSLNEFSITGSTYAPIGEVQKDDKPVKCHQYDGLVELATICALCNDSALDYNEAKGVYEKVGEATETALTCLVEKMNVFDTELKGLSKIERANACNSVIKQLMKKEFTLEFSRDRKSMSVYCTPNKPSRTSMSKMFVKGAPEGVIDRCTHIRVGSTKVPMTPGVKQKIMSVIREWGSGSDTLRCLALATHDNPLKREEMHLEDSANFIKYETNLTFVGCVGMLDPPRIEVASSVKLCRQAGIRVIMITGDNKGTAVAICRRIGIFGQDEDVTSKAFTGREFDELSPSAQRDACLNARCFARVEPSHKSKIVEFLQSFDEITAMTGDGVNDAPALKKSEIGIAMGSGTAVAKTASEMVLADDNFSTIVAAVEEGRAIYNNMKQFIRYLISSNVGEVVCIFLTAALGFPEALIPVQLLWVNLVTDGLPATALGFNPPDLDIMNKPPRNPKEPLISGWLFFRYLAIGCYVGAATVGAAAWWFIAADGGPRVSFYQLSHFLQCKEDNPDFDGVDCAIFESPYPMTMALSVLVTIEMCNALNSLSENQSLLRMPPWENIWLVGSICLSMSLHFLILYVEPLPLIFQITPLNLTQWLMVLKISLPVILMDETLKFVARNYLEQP

[5] = PermeaPad membrane permeability; type: in vitro ADME; details: not told, room temperature, class low/medium in parentheses, read-out: P e (permeability rate)
Description: We determined permeability rates (P e ), which are a measure of how fast a compound can cross a membrane, using cell-free transport models (PermeaPad, innoME GmbH) The CA derivatives have medium to low permeability rates in the range 1.0–24.0 nm/s (Table ). Similar to S36, despite poor permeability, compounds 2–4, 8, and 9 acted on live RyR2-HEK-293 R-CEPIA1er cells inhibiting RyR2. […] Since PermeaPad is an artificial model that primarily reflects passive diffusion, it is likely that additional mechanisms contribute to the crossing of cell membranes by these compounds.
Membrane permeability was assessed using PermeaPad Plate according to the manufacturing procedure (innoME GmbH, Espelkamp, Germany). Briefly, 200 μL (V A) water was added into acceptor plate. 200 μL (V D) of 100–500 μM test compound in water was added directly to the well membranes of the donor plate. The donor plate contains a biomimetic membrane for simulating passive mass transfer through different barriers in the body. Then the donor plate was placed into the acceptor plate wells and incubated at room temperature for 24 h in dark. To determine peak absorbance of test compounds, absorbance spectra of acceptor solutions and initial solutions for each test compound were read out. The Permeability Rate (P e) was calculated using the formula:
P e = C × −ln (1 – ODA/ODB) cm/s, where OD A is the absorbance of acceptor solution, OD B is the absorbance of the standard solution; if the compound is able to permeabilize the membrane and fully reach equilibrium, 250 μM will be the final concentration of solution in the donor and acceptor wells. The coefficient C was calculated using the formula: C=VD×VA/(VD+VA)×Area×time where V A–acceptor volume (cm^3), V D–donor volume (cm^3), membrane area 0.24 cm^2, time is 86,400 s.

effect on RyR2 activity / [Ca2+]ER (in words) [1] | RyR2 activity [1] [%] | effect on SERCA2a ATPase activity (in words) [2] | ATPase activity of SERCA2a in mouse SER [2] [%] | EC50 ([4]; HL-1 cells) | activation of SERCA2 in HL-1 [4] [%] | Papp at 24 h [5] [×10⁻⁶ cm/s] | effect in caffeine-induced Ca2+ release assay relative to CDN1163 ([4]; HL-1 cardiomyocytes) [fold] | increase in the signaling response to caffeine stimulation compared to the control sample ([4]; HL-1 cells, maximal effect of the dose-response) | EC50 [2] | Structure (SMILES) | NaV1.5 activity in CHO cells [3] [%] | effect on NaV1.5 activity (in words) [3] | effect on NaV1.5 (in words) ([3]; 100 μM) | effect on NaV1.5 (in words) ([3]; 1 μM) | effect on NaV1.5 (in words) ([3]; 10–100 μM) | concentration of maximal inhibition ([3]; positive control) [µM]
did not affect the RyR2 activity | 100.9 ± 0.8 | accelerated consumption of NADH | 108.5 ± 2.5 | – | – | – | – | – | – | O=C(O)C=Cc1ccc(O)c(O)c1 [CA, 3-(3,4-dihydroxyphenyl)-2-propenoic acid, reference compound] | 91.8 ± 2.4 | no effect on NaV1.5 activity | – | – | – | –
RyR2 activators | 96.5 ± 0.4 | significant activation of SERCA2a ATPase | 109.2 ± 3.6 | 11 µM | 161.5 ± 9.5 | < 1 | – | – | – | COc1ccc(SCCCNC(=O)/C=C/c2ccc(O)c(O)c2)cc1 [Compound 2, (E)-3-(3,4-Dihydroxyphenyl)-N-(3-((4-methoxyphenyl)thio)propyl)acrylamide] | 89.7 ± 1.1 | – | – | – | – | –
significantly increased [Ca^2+]ER | 102.2 ± 0.6 | significant activation of SERCA2a ATPase | 110.8 ± 4.5 | 1.4 µM | 140.3 ± 6.4 | 2.7 | – | – | – | COc1ccc2c(c1)CN(CCCCNC(=O)C(=O)NCCCCCCNC(=O)/C=C/c1ccc(O)c(O)c1)CCS2 [Compound 4] | 108.0 ± 1.6 | – | small but significant activating effect | – | – | –
did not affect the RyR2 activity | 99.4 ± 0.4 | – | 112.3 ± 3.5 | 3.1 µM | 235.4 ± 8.5 | 0.9 | – | – | – | COc1ccc2c(c1)CN(CCCCCCNC(=O)/C=C/c1ccc(O)c(O)c1)CCS2 [Compound 6] | 88.8 ± 0.9 | – | – | – | – | –
RyR2 activators | 95.0 ± 1.2 | – | 110.5 ± 3.5 | 7.6 µM | 158.1 ± 2.4 | 1.1 | – | – | – | COc1ccc2c(c1)CN(CCCCCCNC(=O)/C=C/c1ccc(O)c(O)c1)CCO2 [Compound 8] | 96.6 ± 3.6 | – | – | – | – | –
significantly increased [Ca^2+]ER | 102.1 ± 0.4 | – | 112.3 ± 4.6 | 47.6 µM | 126.4 ± 13.0 | 0.2 | – | – | – | COc1ccc2c(c1)CN(CCCCCCCCNC/C=C/c1ccc(O)c(O)c1)CCO2 [Compound 10] | 103.0 ± 1.4 | no effect on NaV1.5 | – | – | – | –
did not affect the RyR2 activity | 100.8 ± 0.7 | – | 115.7 ± 4.0 | 13.6 µM | 267.3 ± 11.7 | 2.6 | 2.5 | up to 450% | 0.03 µM and 0.0296 µM | COc1ccc2c(c1)CN(CCCC[NH+]([BH2-]C#N)C/C=C/c1ccc(O)c(O)c1)CCS2 (stereo not shown) [Compound 11] | 83.8 ± 1.7 | – | – | – | – | –

More lines, now with the values behind:

Structure (SMILES) | effect on RyR2 activity / [Ca2+]ER (in words) [1] | RyR2 activity [1] [%] | effect on SERCA2a ATPase activity (in words) [2] | ATPase activity of SERCA2a in mouse SER [2] [%] | EC50 ([4]; HL-1 cells) | activation of SERCA2 in HL-1 [4] [%] | Papp at 24 h [5] [×10⁻⁶ cm/s] | effect in caffeine-induced Ca2+ release assay relative to CDN1163 ([4]; HL-1 cardiomyocytes) [fold] | increase in the signaling response to caffeine stimulation compared to the control sample ([4]; HL-1 cells, maximal effect of the dose-response) | EC50 [2] | NaV1.5 activity in CHO cells [3] [%] | effect on NaV1.5 activity (in words) [3] | effect on NaV1.5 (in words) ([3]; 100 μM) | effect on NaV1.5 (in words) ([3]; 1 μM) | effect on NaV1.5 (in words) ([3]; 10–100 μM) | concentration of maximal inhibition ([3]; positive control) [µM]
Cc1ccc2cccc(NC(=O)c3ccc(OC(C)C)cc3)c2n1 [CDN1163, reference compound] | – | – | – | – | 21 µM and 21.2 µM | – | – | – | – | – | – | blocked NaV1.5 | comparable to the maximal effect of tetracaine | – | – | –
COc1ccc2c(c1)CN(C/C=C/C(=O)NNC(=O)/C=C/c1ccc(O)c(O)c1)CCS2 [Compound 3, (E)-N′-((E)-3-(3,4-Dihydroxyphenyl)acryloyl)-4-(7-methoxy-2,3-dihydrobenzo[1,4-f]thiazepin-4(5H)-yl)but-2-enehydrazide] | significantly increased [Ca^2+]ER | 101.7 ± 0.3 | did not evoke a significant increase in ATPase activity | 100.6 ± 2.5 | > 3 µM | 135.4 ± 3.8 | 3.4 | – | – | – | 94.8 ± 2.1 | – | – | – | – | –
COc1ccc2c(c1)CN(CCCCCCCCNC(=O)/C=C/c1ccc(O)c(O)c1)CCS2 [Compound 7] | – | 100.1 ± 1.7 | – | 109.8 ± 2.9 | 1.9 µM | 175.3 ± 7.2 | 0.9 | – | – | – | 87.4 ± 1.1 | bell-shaped behavior | – | activating effect | inhibitory effect | –
COc1ccc2c(c1)CN(CCCCCC[NH+]([BH2-]C#N)C/C=C/c1ccc(O)c(O)c1)CCS2 (stereo not shown) [Compound 12] | significantly increased [Ca^2+]ER | 103.9 ± 0.8 | – | 118.2 ± 2.5 | 1.1 µM | 277.8 ± 12.7 | 0.4 | – | – | 0.0023 µM | 86.2 ± 2.6 | – | – | – | – | –
O=C1CN(/N=C/c2ccc(-c3ccc([N+](=O)[O-])cc3)o2)C(O)=N1 [dantrolene, reference compound] | increase in R-CEPIA1er fluorescence | – | – | – | – | – | – | – | – | – | – | – | – | – | – | –
CCCCNc1ccc(C(=O)OCCN(C)C)cc1 [tetracaine, reference compound] | – | – | – | – | – | – | – | – | – | – | – | – | – | – | – | 100
